Data: patent publication US10426806B1, “Anti-obesity effect of Borago officinalis linn. extracts to prevent and treat metabolic disorders” (priority 2018, dated 2019)

Columns and labels:
Type in all cases: in vivo, Wistar rats
[1] = tested on: high-fat diet induced-obese rats; assay: Therapeutic study: high-fat diet induced-obese rats treated for 12 weeks; settings: for Average Food intake / Average body weight / FBG (fasting blood glucose level) / Cholesterol / HDL / LDL / Triglycerides / VLDL: obese rats, 12 weeks of treatment; for Average food intake of rats: TO, TS, TC1 and TC2 treated groups, 12 weeks, HFD; for Cholesterol / HDL / LDL / Triglycerides / VLDL: serum
Description: (§1) Thirty male Wistar rats (210-220 g) were obtained from the animal house facility of Dr. Panjwani Center for Molecular Medicine and Drug Research (ICCBS). All animals were kept under standard conditions of temperature and humidity with a 12 h light/dark cycle. This study was approved by the Ethical Committee of International Center for Chemical and Biological Sciences (Protocol #: 2015-0011). After one week of acclimation period, rats were randomly divided into two groups. The control group was fed with normal diet (D12450B, Research Diets, USA), whereas the other groups were fed with high-fat diet (D12451, Research Diets, USA) for a period of 16-week. After 10 weeks, biochemical parameters were evaluated regularly to establish whether the model has developed the symptoms of weight gain and metabolic syndrome.
(§2) Whereas for therapeutic studies the animal groups were further sub-divided into following groups which are as follow: Group 1 (TA), Control; animals in this group received LFD, and distilled water. Group 2 (TC), Pathological control; animals in this group received HFD, and distilled water. Groups 3 (TO), High fat diet induced obese animals in this group received standard drug Orlistat (100 mg/kg/day). Group 4 (TS): High fat diet induced obese animals in this group received standard drug Sibutramine (5 mg/kg/day). Group 5 (TC1): High fat diet induced obese animals in this group received B. officinalis extract (150 mg/kg/day). Group 6 (TC2): High fat diet induced obese animals in this group received B. officinalis extract (300 mg/kg/day).
Body weights were recorded weekly throughout the experiment. The food intake was calculated by using following formula, as described by Ghezzi et al, 2012: […]
(§3) For biochemical analysis after 16 weeks of experimental diet, the blood samples were taken from the tail vein after an overnight fast, whereas after 12 weeks of treatment period, rats were subjected to anesthesia, and blood was drawn by cardiac puncture. Liver and pancreas samples were prepared and stained with hematoxylin and eosin; the liver was excised and fixed in buffered formalin. The sectioned liver tissue segments were stained with hematoxylin-eosin (H-E), and observed under light microscope.
(§4) Blood glucose, serum insulin, total cholesterol, triglycerides, HDL, LDL, very low density lipoproteins […], urea, creatinine, aspartate aminotransferase […], alkaline phosphatase (ALP), serum glutamic pyruvic transaminase (SGPT), and direct and total bilirubin were estimated. Fasting blood glucose levels were measured using glucometer (AccuChek Performa, Australia). Fasting insulin levels were quantified using ultra sensitive rat insulin ELISA kit (Crystal Chem, Downers Grove, USA). Insulin sensitivity was evaluated using Homeostatic Model Assessment (HOMA). Serum total cholesterol, triglycerides, HDL, LDL, VLDL, urea, creatinine, AST, ALP, SGPT, and direct and total bilirubin were analyzed using automatic analyzer (Hitachi, Roche Diagnostics 902, Tokyo, Japan).
In therapeutic study, we investigated the capacity of B. officinalis extracts to reduce the weight of high fat diet induced obese rats, and to improve the key biochemical parameters in metabolic disorders.
Obese rats were treated with Borago officinalis extracts, at two different doses i.e. 150 mg/kg, and 300 mg/kg of body weight for 12 weeks. During these 12 weeks they were also fed HFD.

high fat diet rats = assay: Preventive study: high fat diet rats given extract or standard drug for 8 weeks; settings: for Average Food intake / Average body weight / Cholestrol / HDL / LDL / Tri-glyceride / VLDL: 8 weeks preventive study; for FBG (fasting blood glucose level): preventive study; for Cholestrol / HDL / LDL / Tri-glyceride / VLDL: serum
Description: as §1
After a period of 16 weeks, the group of rats on high fat diet (HF) have developed symptoms of metabolic disorders, along with insulin resistance. The HF fed rats were then sub-divided into […] groups of three rats each, i.e. Group 1 (PA), Control; animals in this group received LFD, and distilled water. Group 2, Pathological control (PC); animals in this group received HFD, and distilled water. Group 3 (PO); animals in this group received HFD, and standard drug Orlistat (100 mg/kg/day). Group 4 (PS); animals in this group received HFD, and standard drug Sibutramine (5 mg/kg/day). Group 5 (PC1); animals in this group received HFD, and B. officinalis extract (150 mg/kg/day). Group 6 (PC2); animals in this group received HFD, and B. officinalis extract (300 mg/kg/day).
Body weights were recorded weekly throughout the experiment. The food intake was calculated by using following formula, as described by Ghezzi et al, 2012:
[…] Liver and pancreas samples were prepared and stained with hematoxylin and eosin; the liver was excised and fixed in buffered formalin. The sectioned liver tissue segments were stained with hematoxylin-eosin (H-E), and observed under light microscope.
as §4

[2] = tested on: high-fat diet induced-obese rats; assay: Evaluation of renal and liver toxicity after 12 weeks of treatment (therapeutic study); settings: 5 mg/kg (TS)
Description: as §2, §3, §4
Evaluation of Renal and Liver Toxicity of Borago officinalis Extract

SMILES: CC(C)CC(N(C)C)C1(c2ccc(Cl)cc2)CCC1 (stereo not shown) [Sibutramine]
- Average Food intake ([1]; 5 mg/kg (TS)): 4.20 g/100 g
- Average body weight ([1]; 5 mg/kg (TS)): 361 ± 6.43 g
- FBG (fasting blood glucose level) ([1]; 5 mg/kg (TS)): 80 ± 0.12 mg/dL
- Average food intake of rats [1]: decrease
- Cholesterol ([1]; 5 mg/kg (TS)): 65 ± 0.13 mg/dL
- HDL ([1]; 5 mg/kg (TS)): 59 ± 0.16 mg/dL
- LDL ([1]; 5 mg/kg (TS)): 14 ± 0.68 mg/dL
- Triglycerides ([1]; 5 mg/kg (TS)): 51 ± 0.19 mg/dL
- VLDL ([1]; 5 mg/kg (TS)): 9 ± 0.8 mg/dL
- Average Food intake (high fat diet rats; 5 mg/kg (PS)): 5.34 g/100 g
- Average body weight (high fat diet rats; 5 mg/kg (PS)): 251 ± 0.11 g
- FBG (fasting blood glucose level) (high fat diet rats; 5 mg/kg (PS)): 76 ± 2.12 mg/dL
- Cholestrol (high fat diet rats; 5 mg/kg (PS)): 65 ± 0.13 mg/dL
- HDL (high fat diet rats; 5 mg/kg (PS)): 59 ± 0.16 mg/dL
- LDL (high fat diet rats; 5 mg/kg (PS)): 14 ± 0.68 mg/dL
- Tri-glyceride (high fat diet rats; 5 mg/kg (PS)): 51 ± 0.19 mg/dL
- VLDL (high fat diet rats; 5 mg/kg (PS)): 9 ± 0.8 mg/dL
- ALP [2]: 116 ± 0.14 U/L
- ALT [2]: 85 ± 0.009 U/L
- Creatinine [2]: 0.49 ± 0.02 mg/dL
- SGPT [2]: 38 ± 3.34 U/L
- Total Bilirubin [2]: 0.15 ± 0.01 mg/dL
- Urea [2]: 31 ± 2.42 mg/dL

SMILES: CCCCCCCCCCC[C@@H](C[C@@H]1OC(=O)[C@H]1CCCCCC)OC(=O)[C@H](CC(C)C)NC=O [Orlistat]
- Average Food intake ([1]; 100 mg/kg (TO)): 3.18 g/100 g
- Average body weight ([1]; 100 mg/kg (TO)): 356 ± 4.63 g
- FBG (fasting blood glucose level) ([1]; 100 mg/kg (TO)): 84 ± 0.17 mg/dL
- Average food intake of rats [1]: decrease
- Cholesterol ([1]; 100 mg/kg (TO)): 68 ± 3.66 mg/dL
- HDL ([1]; 100 mg/kg (TO)): 52 ± 3.04 mg/dL
- LDL ([1]; 100 mg/kg (TO)): 15 ± 0.41 mg/dL
- Triglycerides ([1]; 100 mg/kg (TO)): 52 ± 0.16 mg/dL
- VLDL ([1]; 100 mg/kg (TO)): 9 ± 0.87 mg/dL
- Average Food intake (high fat diet rats; 100 mg/kg (PO)): 4.23 g/100 g
- Average body weight (high fat diet rats; 100 mg/kg (PO)): 256 ± 0.10 g
- FBG (fasting blood glucose level) (high fat diet rats; 100 mg/kg (PO)): 79 ± 1.04 mg/dL
- Cholestrol (high fat diet rats; 100 mg/kg (PO)): 68 ± 3.66 mg/dL
- HDL (high fat diet rats; 100 mg/kg (PO)): 52 ± 3.04 mg/dL
- LDL (high fat diet rats; 100 mg/kg (PO)): 15 ± 0.41 mg/dL
- Tri-glyceride (high fat diet rats; 100 mg/kg (PO)): 52 ± 0.16 mg/dL
- VLDL (high fat diet rats; 100 mg/kg (PO)): 9 ± 0.87 mg/dL
